Our source for the EC50 values is BindingDB's records for doi:10.1016/j.ejmech.2009.07.027 (Trinity College, 2009).

The nature of the experiment: Induction of human SERT-dependent cytotoxicity in SERT expressing HEK293 cells after 48 hrs by neutral red assay.

Bounds are passed on as bounds.

`CCSc1ccc(CC(CC)NC)cc1` (stereo unspecified) [2-N-Methylamino-1-(4-ethylthiophenyl)butane] showed an EC50 of more than 100 µM.

As usually defined, the EC50 is the midpoint of the concentration-response curve. A high value points to a need for much substance.
